Several values for one entry are separate records, joined by “and”; a condition that tells them apart may be missing. Identical values can stand only once.
Experiments:
mESC-derived neurons = assay: Single-cell RNA sequencing of day 9 cultures, assignment of dI identities; type: cell-based, mouse; conditions: scRNA-Seq
Protocol: Preparation of single cell suspension: Day 9 cultures from both protocol1 (RA) and protocol3 (RA+BMP4) were dissociated with 0.25% cold trypsin for 5 mins. Trypsin activity was stopped with the addition of trypsin inhibitor (Sigma-Aldrich) in 1:1 ratio. Cells were then pelleted by centrifugation at 1000RPM and resuspended in 1× PBS. The ratio of viable cells was determined using Trypan blue staining. Dead cells were removed using MACS dead cell removal kit (Miltenyi Biotec Inc.) by following the manufacturer's protocol. Eluted live cells were then suspended in 1× PBS containing 0.04% BSA solution (400 μg/ml) for the library preparation.
Library preparation, and sequencing: ~10,000 live cells/conditions were used to construct single-cell specific cDNA libraries using protocol described in 10× Genomics chromium single cell 3′ reagent kit (v3.1 Chemistry). Briefly, cells were partitioned into nanoliter-scale Gel-Beads-in-emulsion (GEM) using the 10× Chromium controller. Each GEM contains a unique barcode which is shared among the cDNA generated from a single cell. Cells were then lysed, and cDNA synthesis and feature barcoding were performed in the GEMs. The sequencing libraries were recovered using Magnetic separation and the quantity and quality of cDNA were assessed by Agilent 2100 expert High Sensitivity DNA Assay. cDNA samples were sequenced on 1 lane of NovaSeq 6000 S2 flow cell and reads were mapped to mouse mm10 genome using Cell Ranger v.3.0.2 to generate fasq files.
Filtering genes and cells: Seurat package v3.1.1 was used for the analysis. For each condition, genes expressing in less than 3 cells were removed and cells with >250 features were retained. PCA was used for dimension reduction (npcs=50) with top 3000 most variable genes. Raw count data were normalized using regularized negative binomial regression with SCT transformation. Cell clustering is done using Shared Nearest Neighbor (SNN) Graph method and cluster specific markers were identified by Wilcox Rank Sum test.
Each cell cluster was annotated by a combination of the following methods 1) the expression of known canonical cell-type markers 2) Gene Set Enrichment Analysis (GSEA) of cluster specific markers determined by FindMarkers function in Seurat.
Reclustering of neuronal clusters: From the entire single-cell dataset, neuronal cells were first identified by the expression of pan-neuronal markers-Tubb3 and Elavl1/2. Roughly 30% cells express these markers in both protocol 1 and protocol 3 and were thus annotated as the mature neurons. The neuronal populations were then extracted using the Seurat package in R, by clustering the cells expressing Tubb3 >2 (median normalized log expression levels) using the Shared Nearest Neighbor (SNN) Graph method. […] Clusters were visualized with Uniform Manifold Approximation Projection (UMAP) method and the unique cluster-specific markers were identified using FindMarker function in Seurat.
To assess whether protocols 1 and 3 direct distinct classes of dIs, we obtained single-cell transcriptomes from 9,704 cells using protocol 1 and 13,121 cells using protocol 3, taken at day 9 of the differentiation procedure (FIG. 2A). We performed Louvain clustering followed by Uniform Manifold Approximation and Projection (UMAP) plots, to visualize groups of transcriptionally distinct cell types (Becht et al., 2018). This pipeline identified 21 dusters of cells in both protocol 1 (FIG. 2C) and protocol 3 (FIG. 2D). In both conditions, ~30% of cells identify as being stressed; they cluster separately and display <2000 RNA counts (FIGS. 2C, 2D, 9A, 9B). ~2-4% cells are pluripotent stem cells, marked by Sox2, Pou5f1 (Oct4) and Nanog expression, while 5-8% cells are non-neural, either of mesodermal or cardiac neural crest identity, expressing Twist1, Runx2, and Hand2 (Han et al., 2021; Soldatov et al., 2019; Vincentz et al., 2013) (FIGS. 2C, 2D, 9A, 9B). […]

[1] = system: mESCs-derived NMPs / NPCs; assay: Bulk RNA-Seq differential expression and qRT-PCR after RA or RA+BMP4 treatment; type: cell-based, mouse
Protocol: Bulk-RNA sequencing and data processing: Total cell lysate was obtained in buffer RLT (Qiagen) at different time points from three independent differentiations (biological replicates) conducted parallelly. RNA extraction was performed using RNeasy mini kit (Qiagen) and the quality was determined using Agilent Technologies 2100 Bioanalyzer and only samples with a RIN score >8.0 were sequenced. Stranded libraries were constructed using Universal plus mRNA sequencing kit (NuGEN) and sequenced onto 2 lanes of NovaseqS1 to generate 30 million reads/sample. Obtained reads were aligned to the latest mouse reference genome (mm10) using the STAR spliced read aligner. Pearson correlation and principal component analysis (PCA) was performed to determine the similarities among the samples and replicates. Differentially expressed genes were identified using DESeq and EdgeR package on R platform. The candidate genes were selected using cutoff false discovery rate (FDR <0.05) and log fold change (>2). Differentially expressed gene lists were further subjected to Enrichr, Metascape (Zhou et al., 2019) and DAVID functional annotation tools to identify enriched gene ontology (GO) categories.
Quantitative (a) RT-PCR analysis: RNA was isolated with RNeasy Mini Kit (Qiagen, cat no. 74104), and converted to cDNA using Superscript IV First Strand Synthesis kit (Thermo Fisher Scientific). qRT-PCR was performed using SYBR Green PCR Master Mix (Applied Biosystems) on Roche 480 Lightcycler (Roche). The relative fold expression was calculated using 2-AACt method of comparing the expression of the target gene with that of the housekeeping gene glyceraldehyde 3-phosphate dehydrogenase (Gapdh). All experiments were repeated at least 2-3 times (technical replicates) from at least two independent differentiations (biological replicates), and data is represented as mean±SEM.
We took advantage of the directed differentiation protocols to investigate the unresolved mechanisms by which RA and BMP direct dI fate specification. To further validate the use of a stem cell model, we first assessed the genetic basis of the fate decisions mediated by RA signaling. During the 24 hr pulse of RA at day 3, Pax3 levels gradually increase, while T expression concomitantly declines (FIG. 12A). […] To identify the transcriptional changes occurring during this first commitment step, we performed bulk RNA-Seq at day 3 (NMP state), day 3.25 (early transcriptional response to RA) and day 4 (dP state1) (FIG. 11B).
We hypothesized that the addition of BMP4 to NPCs in dP state1, directs them to a more dorsal dP state, i.e. dP state2 (FIG. 11A). To define the transcriptional changes occurring after BMP4 addition, we performed bulk RNA-Seq at day 4 (dP state1), day 4.25 (early transcriptional response to RA+BMP4) and at day 5 (dP state2) (FIG. 4A). […] 78 genes, out of 411, were common between both time points (FIGS. 4B, 13B). Focusing on these common genes, we identified enriched functional processes using GO analyses. The GO terms included the BMP signaling pathway (FIG. 4C, Table 3), confirming that the analysis identified BMP responsive genes.

[2] = 6 hrs of RA treatment (day 3.25) vs day 3 NMP state
[3] = 24 hours of RA exposure (day 4) vs day 3

CC1=C(/C=C/C(C)=C/C=C/C(C)=C/C(=O)O)C(C)(C)CCC1 [RA, retinoic acid]
Tubb3+ (Tuj1+) neurons of unknown neural identity (no dI specific markers) (mESC-derived neurons): 8.5% and ~ 8.5% | Tubb3+ (Tuj1+) neurons that are dI1 (mESC-derived neurons): 5% and 5.2% | Tubb3+ (Tuj1+) neurons that are dI2 (mESC-derived neurons): 5% | Tubb3+ (Tuj1+) neurons that are dI4 (mESC-derived neurons): ~ 33% and 33% | Tubb3+ (Tuj1+) neurons that are dI5 (mESC-derived neurons): 40.5% and 40.6% | Tubb3+ (Tuj1+) neurons that are dI6 (mESC-derived neurons): 8% and 7.6% | genes significantly downregulated [1, 2]: 19 genes | genes significantly upregulated [1, 2]: 138 genes | genes significantly downregulated [1, 3]: 590 genes | genes significantly upregulated [1, 3]: 389 genes | genes upregulated compared to day 4 control (no RA treatment) ([1]; 24 hr treatment of 100 nM RA): 911 genes | genes whose expression levels are altered in total ([1]; day 3, day 3.25, day 4 of RA treatment): 979 genes
